Test in all cases: MIC determination by NCCLS dilution antimicrobial susceptibility test
Common to all, as to assay type: cell-based

Experiment [1] relates to staphylococcus aureus SG 511. Particulars: SG511. An excerpt: (§1) The antibacterial effects of HKI10311129 can be determined by applying methods well-known to the experts, such as the agar plate diffusion test and the determination of the minimal inhibitory concentration (MIC).
(§2) The antimicrobial characteristics have been tested according to the US laboratory standards—National Committee for Clinical Laboratory Standards, Methods for dilution anti-microbial susceptibility tests for bacteria that grow aerobically, Approved Standard M7-A. NCCLS, Villanova, Pa., 1991).

Experiment [2] deals with bacillus subtilis ATCC 6633. As to conditions: ATCC6633.
From the text: as §1, §2

Experiment [3] has as its system enterococcus faecalis 1528 (VRE). Particulars: vanA-type vancomycin resistance.
From the text: as §1, §2

In experiment [4] the test system is staphylococcus aureus 134/93 (MRSA). Particulars: multiresistant.
From the text: as §1, §2

≈ marks a conversion by molar mass, not a printed value. A value given as a limit tells only on which side of the number the result lay.

In the case of `COC1=CC(=O)c2c(cc3c(c2O)C(=O)C2(OC4CCC(OC5CCC(O)C(C)O5)C(C)O4)C(=O)C(C(N)=O)=C(O)C(OC4CCC(OC5CCC(OC6CCC(OC7CCC(O)C(C)O7)C(C)O6)C(C)O5)C(C)O4)C2C3)C1=O` (stereo not shown) [HKI10311129], the MIC in experiment [1] was 0.8 µg/mL (≈ 0.718 µM); in experiment [2] it was below 0.05 µg/mL; in experiment [3], 0.4 µg/mL (≈ 0.359 µM); in experiment [4], 0.8 µg/mL (≈ 0.718 µM).

These data come from US7557091B2, “HKI10311129, novel antibiotic, method for producing the same and the use thereof” (Leibniz-Institut fuer Naturstoff-Forschung und …, priority 2004, dated 2009).
